Source: patent US20250382280A1, “PYRAZOLE DERIVATIVES FOR THE INHIBITION OF PHAGOCYTOSIS” (Canadian Blood Services, priority 2022, published 2025)
Read-outs that look alike come from different tables or passages of the source.

System: phagocytosis of anti-D-opsonized Rh(D+) red cells by monocytes
Assay: monocyte monolayer assay (MMA), in vitro phagocytosis assay
Format: cell-based, human
Parameters: key to Phagocytic index (PI): number of phagocytosed RBCs per 100 monocytes
Details: for Phagocytic index (PI): PI = (# of phagocytic red blood cells)/(300 monocytes) * 100; for IC50: 0.5-100 μM, read-out: IC50 for inhibition of phagocytosis
Protocol: The MMA to screen compounds for their ability to inhibit phagocytosis was performed as previously described (Purohit, M. K. et al., Bioorg. Med. Chem. Lett. 2013; 23:2324-7; and Purohit, M. K. et al., Bioorg. Med. Chem. 2014; 22:2739-52.). Briefly, Mononuclear cells (PBMCs) were layered onto chamber slides and monocytes purified by adherence after 1 hr at 37° C. with 5% CO2. Drugs were solubilized in 100% DMSO and then diluted in Roswell Park Memorial Institute (RPMI) to the final concentration of 5 μM, as previously reported (8,9). Corresponding dimethyl sulfoxide (DMSO) volumes in RPMI medium were used as a control. After one hour, indicator Rh-positive red cells opsonized with anti-RhD were added to the chamber slides and then further incubated for 2 hours before fixing and counting phagocytosed red blood cells (RBCs) using phase-contrast microscopy. As a positive control for inhibition, Intravenous immunoglobulin (IVIg) was used, known to inhibit phagocytosis due to blocking of FcγRs. The phagocytosis index (PI) was determined as the number of phagocytosed RBCs in 100 monocytes. The percent inhibition of phagocytosis was determined by comparing the PI in each treated sample to the PI in the untreated sample, which was determined by normalizing the PI concentration in each treated sample (phagocytosis of opsonized RBCs with vehicle only, representing 100 percent phagocytosis.
Concentrations included 100 μM, 50 μM, 25 μM, 10 μM, 5 μM, 2.5 μM, 1 μM, and 0.5 μM.
The 80 selected pyrazole core compounds were screened using a concentration of 5 μM in the in vitro phagocytosis assay, referred to as the monocyte monolayer assay (MMA). Compounds were compared to a standard intravenous immunoglobulin (IVIg) at a concentration of 1 mg/mL.

[1] = Homo sapiens, Monocyte, 5 μM compound, screening of the 80 compounds, read-out: Average inhibition (% ± standard deviation)
[2] = Homo sapiens, Monocyte, 5 μM, anti-D-opsonized Rh(D+) red cells, read-out: Inhibition percentage
[3] = Homo sapiens, Monocyte, dose-inhibitory response

Row | SMILES | inhibition at 5 µM [1] | also measured
1 | CN(C)C(=O)c1cn(-c2ccccc2)nc1-c1ccccc1 [KB-132] | -9 ± 3.47% | –
2 | CCOC(=O)C1=NNC2C(=O)N(CC)C(=O)C12 (centres unmarked) [KB-133] | 24 ± 8.98% | –
3 | COC(=O)c1n[nH]c(N)c1Cl [KB-134] | 9 ± 6.99% | –
4 | Cc1cc(-c2ccco2)n(-c2ccccc2)n1 [KB-135] | 18 ± 2.7% | –
5 | Cc1nn(-c2ccccc2)c2sc(C(=O)NCCO)cc12 [KB-136] | -4 ± 1.82% | –
6 | Cc1cc(C)n(S(=O)(=O)c2ccccc2)n1 [KB-137] | 10 ± 1.21% | –
7 | Cc1n[nH]c(C)c1Sc1ccc(Cl)cc1 [KB-138] | 38 ± 6.56% | –
8 | Cc1cccc(OCCCc2c(C)n[nH]c2C)c1C [KB-139] | 6 ± 3.48% | –
9 | CCOc1ccc(NC(=O)c2cnn(-c3ccccc3)c2NC(=O)c2ccco2)cc1 [KB-140] | 31 ± 7.84% | –
10 | Cc1cc(C)n(C(=O)COc2ccccc2C)n1 [KB-141] | 36 ± 9.37% | –
11 | Cc1cc(C)n(C(=O)c2ccoc2C)n1 [KB-142] | 11 ± 6.51% | –
12 | Cc1sc2ncnc(-n3ncc(C#N)c3N)c2c1C [KB-143] | 10 ± 6.87% | –
13 | Cc1c(NC(=O)C2CCN(S(=O)(=O)c3cccs3)CC2)c(=O)n(-c2ccccc2)n1C [KB-145] | 4 ± 0.06% | –
14 | CCn1cc(Br)c(C(=O)Nc2cc(Cl)ccc2OC)n1 [KB-146] | 10 ± 9.56% | –
15 | Cn1ncc(Br)c1C(=O)Oc1ccccc1Cl [KB-147] | 0% | –
16 | Cn1cc(Cl)c(C(=O)Nc2ccc(F)cc2F)n1 [KB-148] | 28 ± 9.62% | –
17 | Cc1c(Nc2ncnc3c2cnn3-c2ccccc2)c(=O)n(-c2ccccc2)n1C [KB-149] | 0% | –
18 | CCn1ncc(Br)c1C(=O)NC1CCCCC1 [KB-150] | 24 ± 8.58% | –
19 | COc1ccc(-c2nc(-n3c(C)c(C(C)=O)c(C(C)=O)c3C)sc2C)cc1OC [KB-152] | 2 ± 8.84% | –
20 | Cc1cc2c(cc1C)NC(c1c(C)n(C)n(-c3ccccc3)c1=O)C1=C(CC(C)(C)CC1=O)N2 (centres unmarked) [KB-153] | 8 ± 8.3% | –
21 | COc1ccc(C2=NN(C(C)=O)C(c3ccco3)C2)cc1OC (centres unmarked) [KB-154] | 2 ± 5.19% | –
22 | CCc1ccc(C2CC(c3ccccc3)=NN2S(C)(=O)=O)cc1 (centres unmarked) [KB-155] | 8 ± 9.35% | –
23 | CCOC(=O)c1c(N)nn(C(=O)CC)c1-c1ccccc1 [KB-156] | 2 ± 6.64% | –
24 | O=C1NC(=O)C2C1C(c1ccc(O)cc1)NN2Cc1ccccc1 (centres unmarked) [KB-157] | 3 ± 9.96% | –
25 | COC(=O)N1N=C(C2CCCCC2)CC1(O)C(F)(F)F (centres unmarked) [KB-158] | 0% | –

Row | SMILES | inhibition at 5 µM [1] | also measured
26 | CCOC(=O)c1cnn(-c2ccccc2)c1NC(=O)Cc1cccc(OC)c1 [KB-159] | 15 ± 8.4% | –
27 | Cn1ncc(I)c1C(=O)Nc1cccc2ccccc12 [KB-160] | -2 ± 5.32% | –
28 | CC(=O)N1N=C(c2cccs2)CC1c1ccccc1C (centres unmarked) [KB-161] | 7 ± 8.43% | –
29 | CCOC(=O)c1cnn(-c2nc3sc4c(c3c(=O)[nH]2)CCCC4)c1N [KB-162] | -37 ± 2.59% | –
30 | Cc1ccc2nc(-c3ccc4c(c3)OCO4)cc(C(=O)Nc3c(C)n(C)n(-c4ccccc4)c3=O)c2c1 [KB-163] | -30 ± 1.77% | –
31 | N#CCCn1cc(C(N)=O)c(-c2cccc(Cl)c2)n1 [KB-164] | -3 ± 9.7% | –
32 | N#CCCn1cc(C(=O)Nc2nccs2)c(-c2ccc3c(c2)OCCO3)n1 [KB-165] | 33 ± 5.3% | –
33 | COc1ccc(NC(=O)c2cn(CCC#N)nc2-c2cccs2)cc1 [KB-166] | 17 ± 3.91% | –
34 | Cc1[nH]n(-c2ccccc2)c(=O)c1C1(C(F)(F)F)C(=O)Nc2c1c(=O)[nH]c(=O)n2Cc1ccccc1 (centres unmarked) [KB-167] | 53 ± 4.18% | Phagocytic index (PI) (5 μM): 14; inhibition at 5 µM [2]: 53%
35 | Cc1cc(NC(=O)c2cnn3c2NC(c2ccco2)CC3C(F)(F)F)n(-c2ccccc2)n1 (centres unmarked) [KB-168] | 23 ± 3.86% | –
36 | Cc1c(NC(=O)c2ccn3c(C(F)(F)F)cc(-c4ccccc4)nc23)c(=O)n(-c2ccccc2)n1C [KB-169] | 0% | –
37 | CSc1nc2ccc(S(=O)(=O)Nc3c(C)n(C)n(-c4ccccc4)c3=O)cc2s1 [KB-170] | -13 ± 4.31% | –
38 | CCOC(=O)c1cnn(-c2ccccc2)c1NC(=O)CSc1nc(SC)ns1 [KB-171] | 7 ± 0.39% | –
39 | COc1ccc(S(=O)(=O)n2cccn2)cc1C(C)(C)C [KB-173] | -8 ± 8.88% | –
40 | Cc1nn(C(=O)N(C)C)c(C)c1CN1C(=O)c2ccccc2C1=O [KB-174] | 39 ± 9.53% | –
41 | Cc1coc(C)c1C1=NN(S(C)(=O)=O)C(c2cccs2)C1 (centres unmarked) [KB-175] | 50 ± 1.45% | Phagocytic index (PI) (5 μM): 15; inhibition at 5 µM [2]: 50%
42 | COc1cc(S(=O)(=O)n2cccn2)c(OC)cc1Cl [KB-176] | -10 ± 7.06% | –
43 | CCc1cccc(NS(=O)(=O)c2cnn(CC)c2C)c1 [KB-177] | 4 ± 9.76% | –
44 | COc1ccc(CNC(=O)c2c(Cl)cnn2C)cc1OC [KB-178] | 53 ± 5.11% | Phagocytic index (PI) (5 μM): 29; inhibition at 5 µM [2]: 53%
45 | CCn1cc(S(=O)(=O)NCCc2ccc(OC)c(OC)c2)cn1 [KB-179] | 53 ± 1.18% | Phagocytic index (PI) (5 μM): 14; inhibition at 5 µM [2]: 53%
46 | Cc1nn(C)cc1S(=O)(=O)NCc1ccccc1Cl [KB-180] | -42 ± 8.81% | –
47 | CCOC(=O)c1c(C)nn(-c2nc(C)cc(C)n2)c1N [KB-181] | -11 ± 10.3% | Phagocytic index (PI) (5 μM): 37; inhibition at 5 µM [2]: 45%
48 | Cn1ccc(C(=O)Nc2ccc3c(c2)OCCO3)n1 [KB-182] | 55 ± 3.65% | Phagocytic index (PI) (5 μM): 28; inhibition at 5 µM [2]: 55%
49 | Cc1cc(=O)n(CCN2CCOCC2)c2c1c(C)nn2-c1ccccc1 [KB-183] | -28 ± 9.96% | –
50 | CCOC(=O)c1cnn(C)c1NC(=O)C(CC)Sc1cc(C)ncn1 (centres unmarked) [KB-184] | 7 ± 2.92% | –

Row | SMILES | inhibition at 5 µM [1] | also measured
51 | COc1ccc(-c2cc(C(=O)O)nn2C2CCS(=O)(=O)C2)cc1 (centres unmarked) [KB-185] | -3 ± 3.6% | –
52 | Cc1c(NC(=O)CSc2nc3c(c(=O)[nH]2)CCC3)c(=O)n(-c2ccccc2)n1C [KB-186] | 55 ± 8.43% | Phagocytic index (PI) (5 μM): 28; inhibition at 5 µM [2]: 55%
53 | COc1ccccc1-n1nc(C(C)=O)c(C(C)=O)c1C [KB-187] | -16 ± 9.33% | –
54 | CC(=O)n1nc(C)c(S(=O)(=O)N2CCCC2)c1C [KB-188] | -26 ± 7.94% | –
55 | Cc1nn(C)c(C)c1-c1cc(C(=O)O)[nH]n1 [KB-189] | 52 ± 4.75% | Phagocytic index (PI) (5 μM): 30; inhibition at 5 µM [2]: 52%
56 | Cc1nn(-c2ccc3nnc(C)n3n2)c2c1C(c1cccs1)CC(=O)N2 (centres unmarked) [KB-190] | 56 ± 1.24% | Phagocytic index (PI) (5 μM): 27; inhibition at 5 µM [2]: 56%
57 | O=c1cc(CSc2nc3ccccc3s2)[nH]c2[nH]n(-c3ccccc3)c(=O)c12 [KB-191] | -23 ± 7.85% | –
58 | Cn1ncc(Br)c1C(=O)N1CCCC1c1ccc(F)cc1 (centres unmarked) [KB-192] | -29 ± 9.54% | –
59 | COc1cc(-c2cc[nH]n2)cc(OC)c1OC [KB-194] | 39 ± 4.96% | –
60 | COc1cccc(-c2cc(C(=O)Nc3cc(C)nn3-c3ccccc3)on2)c1 [KB-195] | 25 ± 6.36% | –
61 | Cc1ccccc1C1CCCN1C(=O)Cn1nc(C(F)(F)F)cc1C (centres unmarked) [KB-196] | 24 ± 5.76% | –
62 | Cc1c(S(=O)(=O)N2CCCC2c2ccccc2Cl)cnn1C(F)F (centres unmarked) [KB-197] | 45 ± 4.97% | –
63 | CCn1nccc1C1CCCN1S(=O)(=O)c1cc(C)c(C)cc1C (centres unmarked) [KB-198] | 75 ± 4.76% | Phagocytic index (PI) (5 μM): 9; IC50 [3]: 8.43 µM; inhibition at 5 µM [2]: 75%; EC50 [3]: > 10 µM
64 | CCn1nccc1C1CCCN1S(=O)(=O)c1cc(C)ccc1C (centres unmarked) [KB-198a] | – | IC50 [3]: 227 µM
65 | CCOC(=O)c1cnn(-c2ncnc3c2cnn3-c2ccc(F)cc2)c1N [KB-199] | 40 ± 5.46% | Phagocytic index (PI) (5 μM): 40; inhibition at 5 µM [2]: 40%
66 | COc1ccccc1-c1cc(C(=O)Nc2c(C)n(C)n(-c3ccccc3)c2=O)no1 [KB-200] | 31 ± 1.84% | –
67 | CN(C)CCNC(=O)c1cc(-c2ccc(Cl)cc2)nn1-c1ccccc1 [KB-201] | 0% | –
68 | CNC(=O)c1cc(-c2cccs2)[nH]n1 [KB-202] | 33 ± 2.31% | –
69 | O=C(NCc1ccncc1)c1cnn(-c2ccccc2F)c1-n1cccc1 [KB-203] | 27 ± 2.72% | –
70 | O=C(Nc1ccncc1)c1cc(C2CC2)nn1-c1ccccc1 [KB-204] | 36 ± 3.6% | –
71 | CC(CCc1ccccc1)NC(=O)c1cnn(C)c1-n1cccc1 (centres unmarked) [KB-205] | 47 ± 0.98% | Phagocytic index (PI) (5 μM): 19; inhibition at 5 µM [2]: 47%
72 | CC(C)c1cc(C(=O)Nc2nnc(C3CCCO3)s2)n(-c2ccccc2)n1 (centres unmarked) [KB-206] | 50 ± 5.46% | Phagocytic index (PI) (5 μM): 18; inhibition at 5 µM [2]: 50%
73 | COCc1nnc(NC(=O)c2cnn(C)c2-n2cccc2)s1 [KB-207] | 14 ± 1.86% | –
74 | Nc1c(C(=O)O)cnn1-c1ccc(F)cc1F [KB-209] | 50 ± 1.02% | Phagocytic index (PI) (5 μM): 18; inhibition at 5 µM [2]: 50%
